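Cultured in 96-well plates, cells were exposed to test compound for 48 hours across five concentrations. The concentration for 50% growth inhibition is given as GI50.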 Calls of active or inactive are those of the source. Cut-off read from the data, not from the text of the source: active = GI50 up to about 1.1 µM and inactive = higher.
What was measured:
Test in all cases: inhibition of tumour cell growth, NCI panel, 48 h
[1] = system: KM-20L2
[2] = system: K562
[3] = system: M14
[4] = system: HCC 2998
[5] = system: U-251
[6] = system: COLO 205
[7] = system: UACC-257
[8] = system: 786-0
[9] = system: SF-539
[10] = system: NCI-H460
[11] = system: HT-29
[12] = system: UACC-62
[13] = system: ACHN
[14] = system: CCRF-CEM
[15] = system: HOP-62
[16] = system: HOP-92
[17] = system: A498
[18] = system: BT-549
[19] = system: NCI/ADR-RES
[20] = system: PC-3

Compound	GI50 [1]	GI50 [2]	GI50 [3]	GI50 [4]	GI50 [5]	GI50 [6]	GI50 [7]	GI50 [8]	GI50 [9]	GI50 [10]	GI50 [11]	GI50 [12]	GI50 [13]	GI50 [14]	GI50 [15]	GI50 [16]	GI50 [17]	GI50 [18]	GI50 [19]	GI50 [20]
Cc1nc2c(n1CCC(C)C)C(=O)c1ccccc1C2=O	28.5 µM (inactive)	8.07 µM (inactive)	20.1 µM (inactive)	40.9 µM (inactive)	12.7 µM (inactive)	14.3 µM (inactive)	27.7 µM (inactive)	24.9 µM (inactive)	12 µM (inactive)	6.08 µM (inactive)	20.5 µM (inactive)	12.2 µM (inactive)	29.9 µM (inactive)	13.6 µM (inactive)	18 µM (inactive)					
COCOCc1cc(OCc2ccccc2)c(OC)cc1Br	> 100 µM (inactive)	63.8 µM (inactive)			> 100 µM (inactive)	> 100 µM (inactive)	> 100 µM (inactive)	> 100 µM (inactive)	> 100 µM (inactive)	> 100 µM (inactive)	> 100 µM (inactive)	71.9 µM (inactive)	82.6 µM (inactive)	> 100 µM (inactive)	> 100 µM (inactive)	> 100 µM (inactive)	> 100 µM (inactive)			
COc1c2c(cc3c1C(=O)Cc1ccc4c(c1CN(C)CC3)OCO4)OCO2	38.2 µM (inactive)	28.8 µM (inactive)	74.3 µM (inactive)	> 100 µM (inactive)	86.9 µM (inactive)	43.1 µM (inactive)	> 100 µM (inactive)	> 100 µM (inactive)	> 100 µM (inactive)	67.3 µM (inactive)	29.4 µM (inactive)	> 100 µM (inactive)	> 100 µM (inactive)	70.5 µM (inactive)	> 100 µM (inactive)	5.71 µM (inactive)				
O=c1[nH]c2c(c3ccccc13)CCc1ccccc1-2	> 100 µM (inactive)	> 100 µM (inactive)		> 100 µM (inactive)	> 100 µM (inactive)	> 100 µM (inactive)	> 100 µM (inactive)	> 100 µM (inactive)	> 100 µM (inactive)		> 100 µM (inactive)	> 10 µM (inactive)	> 100 µM (inactive)							
c1c[nH]c(C23C4C5C6C4C2C6C53)n1 (stereo not drawn)		> 100 µM (inactive)	> 100 µM (inactive)	> 100 µM (inactive)	> 100 µM (inactive)	> 100 µM (inactive)	> 100 µM (inactive)	> 100 µM (inactive)	> 100 µM (inactive)	> 100 µM (inactive)	> 100 µM (inactive)	> 100 µM (inactive)	> 100 µM (inactive)	> 100 µM (inactive)	> 100 µM (inactive)	> 100 µM (inactive)	> 100 µM (inactive)	> 100 µM (inactive)	> 100 µM (inactive)	> 100 µM (inactive)
COc1cc(/C=C/C=C2\CC/C(=C\C=C\c3ccc(O)c(OC)c3)C2=O)ccc1O		15.2 µM (inactive)	> 100 µM (inactive)	> 100 µM (inactive)	> 100 µM (inactive)	> 100 µM (inactive)	> 100 µM (inactive)	> 100 µM (inactive)	> 100 µM (inactive)	> 100 µM (inactive)	> 100 µM (inactive)	> 100 µM (inactive)	> 100 µM (inactive)	0.305 µM (active)	> 100 µM (inactive)	> 100 µM (inactive)	> 100 µM (inactive)	> 100 µM (inactive)	> 100 µM (inactive)	> 100 µM (inactive)
CCOc1ccc(NC(=O)C(=O)C(/C(=N/N)C(=O)OC)c2nc3ccc([N+](=O)[O-])cc3nc2O)cc1 (stereo not drawn)		> 100 µM (inactive)	> 100 µM (inactive)	> 100 µM (inactive)	> 100 µM (inactive)	> 100 µM (inactive)	> 100 µM (inactive)	> 100 µM (inactive)	> 100 µM (inactive)	> 100 µM (inactive)	> 100 µM (inactive)	> 100 µM (inactive)	> 100 µM (inactive)	> 100 µM (inactive)	> 100 µM (inactive)	> 100 µM (inactive)	> 100 µM (inactive)	> 100 µM (inactive)	> 100 µM (inactive)	> 100 µM (inactive)
Cc1ccccc1NC(=O)C(=O)c1c(O)c2ccc(O)cc2oc1=O	> 100 µM (inactive)	> 100 µM (inactive)	> 100 µM (inactive)		> 100 µM (inactive)	> 100 µM (inactive)	> 100 µM (inactive)	> 100 µM (inactive)		> 100 µM (inactive)	> 100 µM (inactive)	> 100 µM (inactive)	> 100 µM (inactive)	> 100 µM (inactive)	> 100 µM (inactive)	> 100 µM (inactive)	> 100 µM (inactive)			
Cc1c(-c2ccccc2)cc(O)c2nc3ccccc3n12		5.82 µM (inactive)	> 100 µM (inactive)	17.8 µM (inactive)	6.75 µM (inactive)	> 100 µM (inactive)	> 100 µM (inactive)	29 µM (inactive)	> 100 µM (inactive)	6.31 µM (inactive)	> 100 µM (inactive)	11 µM (inactive)	21.6 µM (inactive)	17 µM (inactive)	21.1 µM (inactive)	10.2 µM (inactive)	> 100 µM (inactive)	12.6 µM (inactive)	7 µM (inactive)	31.7 µM (inactive)
O=C1C(Cl)=C(N2C(=O)CCC2=O)C(=O)c2ccccc21		2.83 µM (inactive)	45.7 µM (inactive)	22.5 µM (inactive)	23.9 µM (inactive)	15.2 µM (inactive)	25.2 µM (inactive)	18.7 µM (inactive)	39.8 µM (inactive)	53.6 µM (inactive)	29 µM (inactive)	34 µM (inactive)	15.7 µM (inactive)	2.62 µM (inactive)	> 100 µM (inactive)	7.83 µM (inactive)	37.9 µM (inactive)	20.5 µM (inactive)	89.3 µM (inactive)	53.2 µM (inactive)
Cc1cc2c(=O)c3ccc(Cl)cc3[nH]c2c(C(=O)O)c1C	> 100 µM (inactive)	> 100 µM (inactive)	> 100 µM (inactive)	> 100 µM (inactive)	> 100 µM (inactive)	> 100 µM (inactive)	> 100 µM (inactive)	> 100 µM (inactive)	> 100 µM (inactive)	> 100 µM (inactive)	> 100 µM (inactive)	> 100 µM (inactive)	> 100 µM (inactive)	> 100 µM (inactive)	> 100 µM (inactive)					
Cc1nc2ccccc2[nH]/c1=N/Nc1ccccc1		17.9 µM (inactive)	20.2 µM (inactive)	38.9 µM (inactive)	48.3 µM (inactive)	0.108 µM (active)	57.9 µM (inactive)	25.2 µM (inactive)	44.5 µM (inactive)	35.6 µM (inactive)	0.0417 µM (active)	16.3 µM (inactive)	30.5 µM (inactive)	4.23 µM (inactive)	23.3 µM (inactive)	3.8 µM (inactive)	31.8 µM (inactive)	20.7 µM (inactive)	15 µM (inactive)	26.1 µM (inactive)
N#Cc1ccc(NC(=O)C(CC(=O)OCc2ccccc2)NC(=O)OCc2ccccc2)cc1 (stereo not drawn)		> 10 µM (inactive)	> 10 µM (inactive)	93.3 µM (inactive)	> 10 µM (inactive)	> 10 µM (inactive)	> 10 µM (inactive)	> 10 µM (inactive)	> 10 µM (inactive)	> 10 µM (inactive)	> 10 µM (inactive)	> 10 µM (inactive)	> 10 µM (inactive)	> 10 µM (inactive)	> 10 µM (inactive)	> 10 µM (inactive)	> 10 µM (inactive)	> 10 µM (inactive)	> 10 µM (inactive)	> 10 µM (inactive)
COc1ccc(Nc2nc3cc(C(F)(F)F)ccc3nc2C(=O)O)cc1OC		28.6 µM (inactive)	37.4 µM (inactive)	35.7 µM (inactive)	35.8 µM (inactive)	27.9 µM (inactive)	29.6 µM (inactive)	31 µM (inactive)	23.3 µM (inactive)	37.6 µM (inactive)	40.2 µM (inactive)	23.7 µM (inactive)	26.7 µM (inactive)	16.2 µM (inactive)	35 µM (inactive)	19 µM (inactive)	30.7 µM (inactive)	26.3 µM (inactive)	30.8 µM (inactive)	36.9 µM (inactive)
COc1ccc(-c2onc(-c3ccc([N+](=O)[O-])cc3)c2C2=NCCN2)cc1	> 100 µM (inactive)	> 100 µM (inactive)	> 100 µM (inactive)	> 100 µM (inactive)	67.6 µM (inactive)	> 100 µM (inactive)	18.5 µM (inactive)	17 µM (inactive)	38 µM (inactive)	45.9 µM (inactive)	33.3 µM (inactive)	> 100 µM (inactive)	38.1 µM (inactive)	> 100 µM (inactive)	> 100 µM (inactive)					
O=C(O)c1cc2sc(C(=O)O)cc2s1	> 100 µM (inactive)	> 100 µM (inactive)	> 100 µM (inactive)		> 100 µM (inactive)	> 100 µM (inactive)	> 100 µM (inactive)		> 100 µM (inactive)	> 100 µM (inactive)	> 100 µM (inactive)	> 100 µM (inactive)		> 100 µM (inactive)	> 100 µM (inactive)	> 100 µM (inactive)	> 100 µM (inactive)			
